Assay results as given in ChEMBL document CHEMBL1255573, “Synthesis and biochemical characterization of a series of 17α-perfluoroalkylated estradiols as selective ligands for estrogen receptor α” (J Med Chem, 2010).

How the values were obtained:
Estrogen receptor beta [1] = biological target: T1, Estrogen receptor beta (Homo sapiens, UniProt Q92731); assay: Agonist activity at ERbeta-LBD in human U2OS cells transfected with Gal4-DBD assessed as increase of transactivation activity after 18 hrs by luciferase reporter gene assay relative to 17-beta-estradiol; format: functional, cell-based
Glucocorticoid receptor [2] = biological target: T2, Glucocorticoid receptor (Homo sapiens, UniProt P04150)
T2 sequence (P04150 whole entry): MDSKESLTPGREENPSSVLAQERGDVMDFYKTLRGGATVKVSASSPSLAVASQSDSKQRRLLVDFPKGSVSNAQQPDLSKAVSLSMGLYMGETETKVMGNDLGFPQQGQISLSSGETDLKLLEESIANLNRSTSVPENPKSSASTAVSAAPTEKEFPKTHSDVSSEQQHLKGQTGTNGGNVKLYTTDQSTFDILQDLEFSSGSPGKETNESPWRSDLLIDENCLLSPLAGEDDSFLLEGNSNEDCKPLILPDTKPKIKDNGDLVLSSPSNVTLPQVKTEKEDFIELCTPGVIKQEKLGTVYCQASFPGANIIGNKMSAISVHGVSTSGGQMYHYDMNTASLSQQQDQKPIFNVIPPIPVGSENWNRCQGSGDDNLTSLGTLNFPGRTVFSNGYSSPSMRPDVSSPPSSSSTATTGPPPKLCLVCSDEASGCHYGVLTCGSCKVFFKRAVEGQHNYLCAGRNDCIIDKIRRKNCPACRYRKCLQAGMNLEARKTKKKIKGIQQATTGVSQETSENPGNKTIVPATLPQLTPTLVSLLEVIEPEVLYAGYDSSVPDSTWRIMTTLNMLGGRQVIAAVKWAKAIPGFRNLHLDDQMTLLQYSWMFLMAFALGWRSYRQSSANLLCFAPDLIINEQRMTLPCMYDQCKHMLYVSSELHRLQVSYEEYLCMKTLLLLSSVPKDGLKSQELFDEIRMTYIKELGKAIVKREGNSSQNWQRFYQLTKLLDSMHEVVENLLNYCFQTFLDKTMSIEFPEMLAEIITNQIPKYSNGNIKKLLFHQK
Description: Antagonist activity at glucocorticoid receptor-LBD in human U2OS cells transfected with Gal4-DBD assessed as inhibition of transactivation activity after 18 hrs by luciferase reporter gene assay

Estrogen receptor [3] = biological target: T3, Estrogen receptor (Homo sapiens, UniProt P03372); assay: Antagonist activity at ERalpha-LBD in human U2OS cells transfected with Gal4-DBD assessed as inhibition of transactivation activity after 18 hrs by luciferase reporter gene assay; format: functional, cell-based
T3 sequence (P03372 whole entry): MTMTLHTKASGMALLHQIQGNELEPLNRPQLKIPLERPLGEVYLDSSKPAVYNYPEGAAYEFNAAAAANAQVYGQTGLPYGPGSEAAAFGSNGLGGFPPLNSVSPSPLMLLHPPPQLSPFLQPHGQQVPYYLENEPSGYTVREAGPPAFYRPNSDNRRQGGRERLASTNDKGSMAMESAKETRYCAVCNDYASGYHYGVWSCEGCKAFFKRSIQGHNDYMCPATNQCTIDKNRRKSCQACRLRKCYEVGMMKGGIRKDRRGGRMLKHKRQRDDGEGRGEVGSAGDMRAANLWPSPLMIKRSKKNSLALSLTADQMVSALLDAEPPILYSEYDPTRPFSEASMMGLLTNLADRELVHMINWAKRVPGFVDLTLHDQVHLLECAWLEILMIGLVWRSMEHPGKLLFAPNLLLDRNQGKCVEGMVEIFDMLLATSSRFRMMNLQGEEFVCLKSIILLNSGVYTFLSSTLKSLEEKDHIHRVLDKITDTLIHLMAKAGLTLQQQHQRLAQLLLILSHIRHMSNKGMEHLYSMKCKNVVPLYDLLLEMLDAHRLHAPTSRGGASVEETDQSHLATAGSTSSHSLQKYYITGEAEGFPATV

Estrogen receptor beta [4] = biological target: T1, Estrogen receptor beta; assay: Antagonist activity at ERbeta-LBD in human U2OS cells transfected with Gal4-DBD assessed as inhibition of transactivation activity after 18 hrs by luciferase reporter gene assay; format: functional, cell-based
Estrogen receptor beta [5] = biological target: T1, Estrogen receptor beta; assay: Agonist activity at ERbeta-LBD in human U2OS cells transfected with Gal4-DBD assessed as increase of transactivation activity after 18 hrs by luciferase reporter gene assay; format: functional, cell-based; details: for pEC50: u2os
[6] = biological target: T4, Mineralocorticoid receptor (Homo sapiens, UniProt P08235); assay: Antagonist activity at mineralocorticoid receptor-LBD in human U2OS cells transfected with Gal4-DBD assessed as inhibition of transactivation activity after 18 hrs by luciferase reporter gene assay; format: functional, cell-based; details: for pIC50: u2os
T4 sequence (P08235 whole entry): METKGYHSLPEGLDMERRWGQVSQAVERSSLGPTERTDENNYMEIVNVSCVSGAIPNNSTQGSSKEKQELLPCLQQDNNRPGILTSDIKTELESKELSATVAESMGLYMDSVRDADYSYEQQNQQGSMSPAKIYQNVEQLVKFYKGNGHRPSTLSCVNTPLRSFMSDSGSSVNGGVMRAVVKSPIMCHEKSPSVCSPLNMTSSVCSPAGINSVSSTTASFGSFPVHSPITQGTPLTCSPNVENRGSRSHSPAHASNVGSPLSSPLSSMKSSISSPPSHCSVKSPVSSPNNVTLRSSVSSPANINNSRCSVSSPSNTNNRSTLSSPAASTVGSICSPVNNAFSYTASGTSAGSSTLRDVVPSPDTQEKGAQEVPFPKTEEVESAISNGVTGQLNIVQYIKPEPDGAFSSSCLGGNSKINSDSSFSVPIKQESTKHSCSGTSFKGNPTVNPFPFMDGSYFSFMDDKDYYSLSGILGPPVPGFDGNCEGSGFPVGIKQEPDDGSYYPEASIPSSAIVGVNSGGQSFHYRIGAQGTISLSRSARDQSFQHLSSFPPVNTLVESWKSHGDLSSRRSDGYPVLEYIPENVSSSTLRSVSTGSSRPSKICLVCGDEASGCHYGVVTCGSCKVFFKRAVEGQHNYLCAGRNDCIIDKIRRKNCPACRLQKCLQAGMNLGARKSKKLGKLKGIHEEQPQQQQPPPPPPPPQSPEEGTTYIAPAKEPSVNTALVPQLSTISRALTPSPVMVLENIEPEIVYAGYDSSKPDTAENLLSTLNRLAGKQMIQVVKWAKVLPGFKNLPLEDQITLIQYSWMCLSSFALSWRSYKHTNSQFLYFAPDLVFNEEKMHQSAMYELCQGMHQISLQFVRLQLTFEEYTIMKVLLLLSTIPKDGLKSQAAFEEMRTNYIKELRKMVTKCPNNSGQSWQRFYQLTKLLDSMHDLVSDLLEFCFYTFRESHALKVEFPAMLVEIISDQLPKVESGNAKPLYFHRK

Glucocorticoid receptor [7] = biological target: T2, Glucocorticoid receptor; remark: listed apart in the source
Description: Agonist activity at glucocorticoid receptor-LBD in human U2OS cells transfected with Gal4-DBD assessed as increase of transactivation activity after 18 hrs by luciferase reporter gene assay

[8] = biological target: T4, Mineralocorticoid receptor; assay: Agonist activity at mineralocorticoid receptor-LBD in human U2OS cells transfected with Gal4-DBD assessed as increase of transactivation activity after 18 hrs by luciferase reporter gene assay; format: functional, cell-based
Estrogen receptor [9] = biological target: T3, Estrogen receptor; assay: Agonist activity at ERalpha-LBD in human U2OS cells transfected with Gal4-DBD assessed as increase of transactivation activity after 18 hrs by luciferase reporter gene assay; format: functional, cell-based; details: for pEC50: u2os

T1 sequence (Q92731 whole entry, the tested form may be a part): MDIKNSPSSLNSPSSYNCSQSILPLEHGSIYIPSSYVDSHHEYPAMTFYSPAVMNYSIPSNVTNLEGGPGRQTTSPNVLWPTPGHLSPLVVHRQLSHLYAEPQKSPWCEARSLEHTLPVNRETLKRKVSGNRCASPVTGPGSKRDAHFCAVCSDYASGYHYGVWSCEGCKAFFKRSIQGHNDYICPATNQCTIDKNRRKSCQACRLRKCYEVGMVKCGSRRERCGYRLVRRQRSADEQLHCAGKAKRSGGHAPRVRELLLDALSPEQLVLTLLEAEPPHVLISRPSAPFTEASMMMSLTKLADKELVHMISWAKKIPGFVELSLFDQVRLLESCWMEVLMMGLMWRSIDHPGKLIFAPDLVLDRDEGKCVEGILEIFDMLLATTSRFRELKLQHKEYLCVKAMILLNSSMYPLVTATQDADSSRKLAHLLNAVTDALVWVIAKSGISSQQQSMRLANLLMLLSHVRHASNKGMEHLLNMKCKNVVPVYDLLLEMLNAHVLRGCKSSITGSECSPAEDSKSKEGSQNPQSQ

SMILES | Activity (Estrogen receptor beta [1]) [%] | IC50 (Glucocorticoid receptor [2]) [µM] | IC50 (Estrogen receptor [3]) [µM] | IC50 (Estrogen receptor beta [4]) [µM] | EC50 (Estrogen receptor beta [5]) [µM] | pIC50 [6] | EC50 (Glucocorticoid receptor [7]) [µM] | EC50 [8] [µM] | EC50 (Estrogen receptor [9]) [µM] | pEC50 (Estrogen receptor beta [5]) | IC50 [6] [µM] | pEC50 (Estrogen receptor [9])
COc1ccc2c(c1)CC[C@@H]1[C@@H]2CC[C@@]2(C)[C@H]1CC[C@@]2(O)C/C=C/CC(F)(F)C(F)(F)C(F)(F)F |  | < 15.8 | < 15.8 | < 15.8 |  | > 4.8 | < 15.8 | < 15.8 | 1.66 | > 4.817 |  | 
C[C@]12CC[C@@H]3c4ccc(O)cc4CC[C@H]3[C@@H]1CC[C@@]2(O)/C=C/CC(F)(F)C(F)(F)C(F)(F)F | 0.35 | 3.13 | < 15.8 | < 12.4 | 0.129 |  | < 15.8 | < 15.8 | 0.0355 |  | 3.81 | 
C[C@]12CC[C@@H]3c4ccc(O)cc4CC[C@H]3[C@@H]1CC[C@@]2(O)/C=C/CC(F)(C(F)(F)F)C(F)(F)F |  | 13.6 | < 15.8 | < 15.7 |  |  | < 15.8 | < 15.8 | 9.95 | > 4.713 | < 6.65 | 
COc1ccc2c(c1)CC[C@@H]1[C@@H]2CC[C@@]2(C)[C@H]1CC[C@@]2(O)/C=C/CC(F)(F)C(F)(F)C(F)(F)F | 0.01 | < 9.25 | < 15.8 | < 15.8 | 5.19 | > 4.841 | < 15.8 | < 15.8 | 4.03 |  |  | 

The remaining lines, values ahead:

Activity (Estrogen receptor beta [1]) [%] | IC50 (Glucocorticoid receptor [2]) [µM] | IC50 (Estrogen receptor [3]) [µM] | IC50 (Estrogen receptor beta [4]) [µM] | EC50 (Estrogen receptor beta [5]) [µM] | pIC50 [6] | EC50 (Glucocorticoid receptor [7]) [µM] | EC50 [8] [µM] | EC50 (Estrogen receptor [9]) [µM] | pEC50 (Estrogen receptor beta [5]) | IC50 [6] [µM] | pEC50 (Estrogen receptor [9]) | SMILES
0.02 | < 5.5 | < 15.8 | < 15.8 | 2.4 | > 4.901 | < 15.8 | < 15.8 | 0.485 |  |  |  | C[C@]12CC[C@@H]3c4ccc(O)cc4CC[C@H]3[C@@H]1CC[C@@]2(O)C/C=C/CC(F)(F)C(F)(F)C(F)(F)F
 | < 13.5 | < 15.8 | < 4.05 |  |  | < 15.8 | < 15.8 | 0.403 | > 4.8 | 5.14 |  | C[C@]12CC[C@@H]3c4ccc(O)cc4CC[C@H]3[C@@H]1CC[C@@]2(O)C/C=C/CC(F)(C(F)(F)F)C(F)(F)F
 | < 15.8 | < 15.8 | < 15.8 |  | > 4.8 | 0.00673 | < 15.8 |  | > 4.902 |  | > 4.8 | COc1ccc2c(c1)CC[C@@H]1[C@@H]2CC[C@@]2(C)[C@H]1CC[C@@]2(O)C/C=C/CC(F)(F)C(F)(F)C(F)(F)C(F)(F)C(F)(F)C(F)(F)F
 | < 15.8 | < 15.8 | < 11.9 | < 2.75 |  | < 15.8 | < 15.8 | 2.08 |  | < 5.36 |  | C[C@]12CC[C@@H]3c4ccc(O)cc4CC[C@H]3[C@@H]1CC[C@@]2(O)/C=C/CC(F)(F)C(F)(F)C(F)(F)C(F)(F)C(F)(F)C(F)(F)F
0.88 | < 15.8 | < 15.8 | < 15.8 | 0.052 |  | < 15.8 | < 15.8 | 1.03 |  | < 4.82 |  | C[C@]12CC[C@@H]3c4ccc(O)cc4CC[C@H]3[C@@H]1CC[C@@]2(O)C/C=C/CC(F)(F)C(F)(F)C(F)(F)C(F)(F)C(F)(F)C(F)(F)F
 | < 15.8 | < 15.8 | < 15.8 | < 8.34 | > 4.8 | < 15.8 | < 15.8 |  |  |  | > 4.8 | COc1ccc2c(c1)CC[C@@H]1[C@@H]2CC[C@@]2(C)[C@H]1CC[C@@]2(O)/C=C/CC(F)(F)C(F)(F)C(F)(F)C(F)(F)C(F)(F)C(F)(F)F
